Here are results for 11 molecules from patent US7973162B2, “Modulators of muscarinic receptors” (Vertex Pharmaceuticals Incorporated, priority 2007, dated 2011).

Format in all cases: cell-based
Assay [1] has as its target T1, M1 muscarinic receptor (Homo sapiens, UniProt P11229).
T1 construct: expressed in transfected cells; host or cells: CHO (M1-CHO)
T1 sequence (P11229 1-460): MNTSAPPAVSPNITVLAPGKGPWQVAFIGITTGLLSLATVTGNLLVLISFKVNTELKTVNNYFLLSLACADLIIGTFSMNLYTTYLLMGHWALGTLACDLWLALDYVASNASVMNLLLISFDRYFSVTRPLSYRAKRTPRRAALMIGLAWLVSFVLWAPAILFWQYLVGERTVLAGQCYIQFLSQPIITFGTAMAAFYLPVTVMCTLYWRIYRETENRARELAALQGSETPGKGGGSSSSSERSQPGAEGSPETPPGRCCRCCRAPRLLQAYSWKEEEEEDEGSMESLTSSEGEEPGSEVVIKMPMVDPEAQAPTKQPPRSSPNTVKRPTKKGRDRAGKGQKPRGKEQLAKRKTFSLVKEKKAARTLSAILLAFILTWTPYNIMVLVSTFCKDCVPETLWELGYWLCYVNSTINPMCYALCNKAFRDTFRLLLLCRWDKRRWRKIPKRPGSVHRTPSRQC
Nature of the assay: Functional mobilization of intracellular calcium (FLIPR), M1-CHO cells. Conditions: for Emax / M1 Efficacy: 100% efficacy = maximum response obtained with the Carbachol control; for EC50: CHO cells expressing M1, calcium mobilization. Here is the method: (§1) Functional Mobilization of Intracellular Calcium to Determine Muscarinic Receptor Activity:
(§2) CHO cells expressing muscarinic receptors (M1 to M5) are grown as monolayers in tissue culture flasks at 37° C. in a humidified atmosphere containing 5% CO2 and passaged every 3-5 days. The growth media is Dulbecco's modified eagles medium (DMEM, Gibco Cat# 12430-054), containing 25 mM Hepes and supplemented with Fetal Bovine Serum (Hyclone, cat #SH30071.03), 0.1 mM of MEM non-essential amino acids (GIBCO, Cat #11140-050), 1 mM MEM Sodium Pyruvate (GIBCO Cat #11360-070) and 100 units/ml of Penicillin G and 100 μg/ml of Streptomycin (GIBCO Cat #15140-122). The recombinant muscarinic receptor cell lines are grown under antibiotic pressure with media containing 25 μg/ml zeocin and 500 μg/ml G418 (M1-CHO), 4 μg/ml puromycin, 50 μg/ml zeocin and 2.5 μg/ml blasticidin (M2 and M4-CHO) or 50 μg/ml zeocin and 4 μg/ml puromycin (M3 and M5-CHO).
(§3) Cells are harvested at 80-90% confluence using Versene (GIBCO Cat #15040-066), collected by centrifugation and seeded 18-24 hrs prior to running the calcium assay at a density of 5,000-10,000 cells/well in […], clear-bottomed 384-well plates (BD Biocoat, poly-D-lysine, Cat#356663). The day of the experiment, the cells are washed with a plate washer (Bioteck Instruments, ELX 405) using bath1 buffer (140-mM NaCl, 4.5-mM KCl, 2-mM CaCl2, 1-mM MgCl2, 10-mM Hepes-Na, 10-mM Glucose, pH 7.4, with NaOH) containing 1 mM Probenecid. Next, the calcium dye Fluo-3 (25 μl/well of Fluo-3 AM at 4 μM, Molecular Probes F-1241, in Bath 1 buffer containing 1 mM Probenecid) is added to the 25 μl of Bath 1 remaining in each well after the plate wash and the dye is loaded at 37° C. in the tissue culture incubator for 60-90 min. The fluorescent dye is removed using the plate washer with Bath 1 containing 1 mM Probenecid, leaving 25 μl/well of this solution after the wash. Alternatively, cells can be loaded with the calcium indicator from Molecular Devices (Calcium 3 Assay Reagents, Cat #R7181) adding 5 μl of a 5× solution dye in Bath 1 containing 1 mM Probenecid (10 ml per dye flask cat #R7182 to generate a solution 20×) to 20 μl of the same buffer. After loading for 60 min, the experiment can be run without having to remove the dye.
(§4) Compounds are prepared at a 2× fold concentration in a 96-well plate (round bottom, Costar Corning cat #3656), by reconstituting the pre-spotted compounds in bath 1 containing 1 mM probenecid. The final concentration DMSO is 0.5%, and the amount of DMSO is normalized across the assay plate. To determine an agonist action of the compounds on muscarinic receptors, the reconstituted compounds are added (25 μl compound/well) to the cell assay plate (containing 25 μl/well) using the multi-channel robotic system of the FLIPR 3 Instrument (Molecular Devices, Sunnyvale, Calif.). To determine a functional inhibitory action of the compounds on muscarinic receptors, the reconstituted compounds are added (25 μl compound/well) to the assay plate and pre-incubated for 15 min prior to adding 25 μl of Carbachol at 3× the EC80 for each muscarinic subtype. Alternatively, the compounds can be co-applied simultaneously with the agonist. In both assay modes, the fluorescence is recorded for 60 sec (excitation wavelength is […] and emission wavelength 540 nm) using the FLIPR 3 instrument.
(§5) The potency, efficacy and selectivity of the muscarinic compounds were evaluated by screening the compound activity across the whole family (M1 to M5 cells). Compounds were also screened for activity on other proteins such as other GPCRs and ion channels to determine selectivity on M4 receptors.
(§6) Examples of activities and efficacies of the muscarinic compounds of formulae (I, Ia, and Ib) on modulating M1 and M4 receptors are shown below in Table 3. […]
Background: Calcium flux is commonly read through the fluorescence of an indicator in the cells.

Assay [2] deals with T2, M3 muscarinic receptor (Homo sapiens, UniProt P20309).
T2 construct: expressed in transfected cells; host or cells: CHO (M3-CHO)
T2 sequence (P20309 whole entry): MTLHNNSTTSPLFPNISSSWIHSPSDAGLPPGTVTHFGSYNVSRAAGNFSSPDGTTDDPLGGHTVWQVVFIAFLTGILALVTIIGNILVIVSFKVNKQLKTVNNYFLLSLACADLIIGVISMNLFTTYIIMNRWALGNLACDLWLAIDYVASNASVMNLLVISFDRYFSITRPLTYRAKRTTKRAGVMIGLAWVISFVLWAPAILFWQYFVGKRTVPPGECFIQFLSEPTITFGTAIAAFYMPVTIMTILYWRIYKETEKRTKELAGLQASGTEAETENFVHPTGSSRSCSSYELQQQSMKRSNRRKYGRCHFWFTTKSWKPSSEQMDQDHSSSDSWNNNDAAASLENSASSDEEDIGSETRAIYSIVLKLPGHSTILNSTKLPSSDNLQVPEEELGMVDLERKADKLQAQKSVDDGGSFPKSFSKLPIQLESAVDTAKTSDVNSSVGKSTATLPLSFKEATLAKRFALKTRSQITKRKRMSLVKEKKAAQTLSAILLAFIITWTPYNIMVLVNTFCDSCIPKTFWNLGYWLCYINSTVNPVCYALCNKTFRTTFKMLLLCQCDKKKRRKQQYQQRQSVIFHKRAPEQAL
Nature of the assay: Functional mobilization of intracellular calcium (FLIPR), M3-CHO cells. Conditions: for Emax / M3 Efficacy: 100% efficacy = maximum response obtained with the Carbachol control; for EC50: CHO cells expressing M3, calcium mobilization. Here is the method: as §1, §2, §3, §4, §5, §6

Assay [3] has as its target T3, M2 muscarinic receptor (Homo sapiens, UniProt P08172).
T3 construct: expressed in transfected cells; host or cells: CHO (M2-CHO)
T3 sequence (P08172 1-466): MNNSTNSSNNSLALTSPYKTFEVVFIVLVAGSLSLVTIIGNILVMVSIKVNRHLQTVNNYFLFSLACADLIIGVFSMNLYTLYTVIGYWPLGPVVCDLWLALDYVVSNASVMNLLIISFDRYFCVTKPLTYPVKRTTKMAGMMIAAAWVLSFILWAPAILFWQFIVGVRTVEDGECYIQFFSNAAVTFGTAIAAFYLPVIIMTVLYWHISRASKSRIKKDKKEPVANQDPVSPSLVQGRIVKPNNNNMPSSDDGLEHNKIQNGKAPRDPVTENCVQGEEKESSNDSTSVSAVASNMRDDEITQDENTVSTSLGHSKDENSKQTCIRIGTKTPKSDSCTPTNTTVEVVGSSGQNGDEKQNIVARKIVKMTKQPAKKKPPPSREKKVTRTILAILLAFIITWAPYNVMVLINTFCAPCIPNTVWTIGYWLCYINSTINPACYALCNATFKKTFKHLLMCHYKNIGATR
As to the kind of experiment: Functional mobilization of intracellular calcium (FLIPR), M2-CHO cells. Conditions: for Emax / M2 Efficacy: 100% efficacy = maximum response obtained with the Carbachol control; for EC50: CHO cells expressing M2, calcium mobilization. Here is the method:
as §1, §2, §3, §4, §5, §6

Assay [4] deals with T4, M4 muscarinic receptor (Homo sapiens, UniProt P08173).
T4 construct: expressed in transfected cells; host or cells: CHO (M4-CHO)
T4 sequence (P08173 1-479): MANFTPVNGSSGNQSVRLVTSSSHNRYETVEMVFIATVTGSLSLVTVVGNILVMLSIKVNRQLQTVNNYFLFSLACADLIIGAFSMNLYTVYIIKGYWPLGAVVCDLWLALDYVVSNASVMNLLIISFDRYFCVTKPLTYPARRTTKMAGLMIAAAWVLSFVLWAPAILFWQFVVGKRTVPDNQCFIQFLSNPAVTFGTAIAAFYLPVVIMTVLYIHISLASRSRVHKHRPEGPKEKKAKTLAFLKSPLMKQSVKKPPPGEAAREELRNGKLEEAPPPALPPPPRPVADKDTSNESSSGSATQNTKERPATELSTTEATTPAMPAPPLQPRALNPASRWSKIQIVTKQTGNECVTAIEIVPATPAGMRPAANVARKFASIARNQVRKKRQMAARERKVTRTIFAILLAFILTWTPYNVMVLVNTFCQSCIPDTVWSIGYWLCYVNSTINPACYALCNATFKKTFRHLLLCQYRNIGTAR
As to the kind of experiment: Functional mobilization of intracellular calcium (FLIPR), M4-CHO cells. Conditions: for Emax / M4 Efficacy: 100% efficacy = maximum response obtained with the Carbachol control; for EC50: CHO cells expressing M4, calcium mobilization. How it is done: as §1, §2, §3, §4, §5, §6

In general, Emax refers to the maximal effect, on the per cent scale that the assay sets. A word on the EC50: it is the concentration at which the effect is half-maximal. As to `CCOC(=O)N1CCC(N2CCC3(CC2)C[C@H]2CC(=O)N(C)[C@H]2c2ccccc23)CC1` [Compound 12], the Emax in assay [1] was 25 to 100%; in assay [2] it was less than 25%; in assay [3], 25 to 100%; in assay [4], 25 to 100%. The EC50 in assay [1] was less than 2 µM; in assay [2], more than 5 µM; in assay [3], less than 2 µM; in assay [4] it was less than 2 µM.
In the case of `CCOC(=O)N1CCC(N2CCC3(CC2)C[C@H]2CC(=O)N(CC(=O)O)[C@H]2c2ccccc23)CC1` [Compound 13], the Emax was 25 to 100% in assay [1], less than 25% in assay [2], less than 25% in assay [3] and 25 to 100% in assay [4]. The EC50 in assay [1], in assay [2], in assay [3] and in assay [4] was more than 5 µM each time.
In the case of `c1ccc2c(c1)C1OCCC1CC21CCN(CC2CCCCC2)CC1` (stereo not shown) [Compound 14], the Emax in assay [1] is 25 to 100%; in assay [2], less than 25%; in assay [3], less than 25%; in assay [4] it was 25 to 100%. For the same molecule, the 50% effective concentration (EC50) in assay [1] was more than 5 µM; in assay [2], more than 5 µM; in assay [3] it was more than 5 µM; in assay [4], less than 2 µM.
For `CN1C(=O)C[C@@H]2CC3(CCN(C4CC5CCC(C5)C4)CC3)c3ccccc3[C@@H]21` (stereo partly shown) [Compound 15], the Emax in assay [1] was 25 to 100%; in assay [2], less than 25%; in assay [3] it was less than 25%; in assay [4], 25 to 100%. In addition, the EC50 in assay [1] was 2 to 5 µM; in assay [2], more than 5 µM; in assay [3], more than 5 µM; in assay [4], less than 2 µM.
Take `COCCN1C(=O)C[C@@H]2CC3(CCN(C4CCCCC4)CC3)c3ccccc3[C@@H]21` [Compound 16]: the Emax was less than 25% in assay [1], less than 25% in assay [2], less than 25% in assay [3] and 25 to 100% in assay [4]. Further, the EC50 is more than 5 µM in assay [1], more than 5 µM in assay [2], more than 5 µM in assay [3] and less than 2 µM in assay [4].
`CCOC(=O)N1CCC(N2CCC3(CC2)C[C@H]2CC(=O)N[C@H]2c2ccccc23)CC1` [Compound 17]: in assay [1], the “M1 Efficacy” value is on record as “++ (efficacy was calculated to be from 100% to 25%)” and the EC50 was less than 2 µM. In assay [2], the “M3 Efficacy” value is reported as “+ (efficacy was calculated to be less than 25%)” and the EC50 is more than 5 µM. Further, in assay [3], the “M2 Efficacy” value was “++ (efficacy was calculated to be from 100% to 25%)” and the EC50 is less than 2 µM. Also, in assay [4], the “M4 Efficacy” value is given as “++ (efficacy was calculated to be from 100% to 25%)” and the EC50 was less than 2 µM.
On to `O=C1CC2CC3(CCN(CC4CCCCC4)CC3)c3ccccc3C2O1` (stereo not shown) [Compound 18], for which the Emax in assay [1] was 25 to 100%; in assay [2] it was less than 25%; in assay [3], 25 to 100%; in assay [4], 25 to 100%. Besides, the EC50 was less than 2 µM in assay [1], more than 5 µM in assay [2], more than 5 µM in assay [3] and less than 2 µM in assay [4].
As for `O=C1C[C@@H]2CC3(CCN(C4CCCCC4)CC3)c3ccccc3[C@@H]2N1` [Compound 19], in assay [1], the “M1 Efficacy” value was “++ (efficacy was calculated to be from 100% to 25%)” and the EC50 is less than 2 µM. Besides, in assay [2], the “M3 Efficacy” value was “+ (efficacy was calculated to be less than 25%)” and the concentration giving a half-maximal response (EC50) is more than 5 µM. Moreover, in assay [3], the “M2 Efficacy” value is listed as “++ (efficacy was calculated to be from 100% to 25%)” and the EC50 lay in the range of 2 to 5 µM. In assay [4], the “M4 Efficacy” value was “++ (efficacy was calculated to be from 100% to 25%)” and the EC50 is less than 2 µM.
Regarding `O=C1CC2CC3(CCN(C4CCCCC4)CC3)c3ccccc3C2O1` (stereo not shown) [Compound 21], the Emax in assay [1] was 25 to 100%; in assay [2] it was less than 25%; in assay [3] it was 25 to 100%; in assay [4] it was 25 to 100%. The half-maximal effective concentration (EC50) is less than 2 µM in assay [1], more than 5 µM in assay [2], more than 5 µM in assay [3] and less than 2 µM in assay [4].
As to `COCCN1C(=O)C[C@@H]2CC3(CCN(CC4CCCCC4)CC3)c3ccccc3[C@@H]21` [Compound 22], the Emax in assay [1] was 25 to 100%; in assay [2], less than 25%; in assay [3], less than 25%; in assay [4], 25 to 100%. The concentration giving a half-maximal response (EC50) in assay [1] is 2 to 5 µM; in assay [2], more than 5 µM; in assay [3], more than 5 µM; in assay [4], less than 2 µM.
Turning to `CN1C(=O)C[C@@H]2CC3(CCN(C4CCCCC4)CC3)c3ccccc3[C@@H]21` [Compound 23], the Emax was 25 to 100% in assay [1], less than 25% in assay [2], 25 to 100% in assay [3] and 25 to 100% in assay [4]. For the same molecule, the EC50 in assay [1] is less than 2 µM; in assay [2], more than 5 µM; in assay [3], less than 2 µM; in assay [4], less than 2 µM.
